# Literature values, collected in patent publication US10869938B2, “Magnetic resonance imaging” (1C TARGETS AS, priority 2007, dated 2020).
# Where two headings read alike, the source gives them in different places.
# System: healthy myocardial cells
# Details: healthy individuals
smiles,measurement,setting,value
"Cc1ncc(COP(=O)(O)O)c(CN(CCN(CC(=O)[O-])Cc2c(COP(=O)(O)O)cnc(C)c2O)CC(=O)[O-])c1O.[Mn+2] [MnDPDP, manganese (II) chelate of N,N′-bis-(pyridoxal-5-phosphate)-ethylenediamine-N,N′-diacetic acid]",manganese tissue concentration versus time curve,5 minute infusion,biphasic curve
same,manganese tissue concentration versus time curve,30 minute infusion,increased steadily
